Test [1] deals with His-tagged KRAS G12D protein (Homo sapiens, UniProt P01116, G12D). In words: KRAS G12D TR-FRET Assay. It is filed as binding.
Test [2] deals with GDP-bound KRAS protein (aa 1-169), containing both G12D and C118A amino acid substitutions (Homo sapiens, UniProt P01116, C118A/G12D). In words: KRAS G12D Coupled Nucleotide Exchange Assay. It is filed as biochemical. Conditions: 2 h compound pre-incubation. The procedure: Following compound pre-incubation, purified SOS protein (aa 564-1049) and GTP (Roche 10106399001) were added to the assay wells and incubated for an additional 30 min. […] The assay plates were then read on a PerkinElmer EnVision Multilabel Reader, using AlphaScreen® technology, and data were analyzed using a 4-parameter logistic model to calculate IC50 values.
GDP-bound KRAS protein (aa 1-169), containing both G12D and C118A amino acid substitutions, sequence (P01116 1-169 isoform P01116-2 G12D/C118A): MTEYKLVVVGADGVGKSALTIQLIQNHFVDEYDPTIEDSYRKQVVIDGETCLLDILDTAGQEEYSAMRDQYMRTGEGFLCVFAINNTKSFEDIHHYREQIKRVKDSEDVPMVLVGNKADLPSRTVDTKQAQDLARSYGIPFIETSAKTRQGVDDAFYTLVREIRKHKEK

In test [3] the test system is Phosphorylation of ERK1/2 in AsPC-1 cells. As to the kind of experiment: Phospho-ERK1/2 MSD Assay (AsPC-1 cells). It counts as cell-based. Particulars: Homo sapiens, ASPC1, 2 h, 2 hours treatment, read-out: p-ERK (AsPC-1 cells) IC50. Put shortly: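 Read-out: MSD electrochemiluminescent detection of phosphorylated ERK1/2 in whole-cell lysates, fitted to a 4-parameter logistic curve for IC50. Prior to lysis, AsPC-1 cells (25,000 per well) received a 2 h compound dose-response at 37 °C.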

In test [4] the test system is Phosphorylation of ERK1/2 in A-427 cells. As to the kind of experiment: Phospho-ERK1/2 MSD Assay (A-427 cells). It is filed as cell-based. Particulars: Homo sapiens, A-427, 2 h, 2 h treatment, read-out: p-ERK (A427 cells) IC50. Put shortly:
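ERK1/2 phosphorylation measured by Meso Scale whole-cell lysate assay after A-427 cells were exposed to a titration of compound for 2 h at 37 °C.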

pIC50: −log10 of the molar value. Where only a bound is given, the exact number is not on record here.

His-tagged KRAS G12D protein, sequence (P01116 1-188 isoform P01116-2 G12D): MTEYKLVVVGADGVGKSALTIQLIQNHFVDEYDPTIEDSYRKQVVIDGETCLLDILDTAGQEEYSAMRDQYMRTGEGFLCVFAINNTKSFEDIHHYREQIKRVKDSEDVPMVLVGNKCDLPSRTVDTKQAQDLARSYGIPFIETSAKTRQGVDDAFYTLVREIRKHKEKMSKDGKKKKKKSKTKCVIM

For `Oc1cc(-c2ccc3c(N4C[C@H]5C[C@@H](C4)N5)nc(OC[C@@]45CCCN4C[C@H](F)C5)nc3c2F)c2ccccc2c1` [Example 4, 4-(4-((1R,5S)-3,6-diazabicyclo[3.1. 1]heptan-3-yl)-8-fluoro-2-(((2R,7aS)-2-fluorotetrahydro-1H-pyrrolizin-7a(5H)-yl)methoxy)quinazolin-7-yl)naphthalen-2-ol], the results for the pIC50 in test [1], in test [3] and in test [4] were 8.30, 5.91 and 6.53, respectively. In test [2], the “Avg 2 h Coupled Exchange IC50” value was 0.007 µM.

For `Oc1cc(-c2c(F)cc3c(N4C[C@H]5CC[C@@H](C4)N5)nc(OC[C@@]45CCCN4C[C@H](F)C5)nc3c2F)c2c(Cl)cccc2c1` [Example 70, 4-(4-((1R,5S)-3,8-diazabicyclo[3.2. 1]octan-3-yl)-6,8-difluoro-2-(((2R,7aS)-2-fluorotetrahydro-1H-pyrrolizin-7a(5H)-yl)methoxy)quinazolin-7-yl)-5-chloronaphthalen-2-ol], the pIC50 in test [1] is 8.52; in test [3], 7.31; in test [4] it was 7.92. For the same molecule, the “Avg 2 h Coupled Exchange IC50” value in test [2] was found to be 0.007 µM.

As for `Cc1ccc2[nH]nc(C)c2c1-c1c(Cl)cc2c(N3C[C@H]4CC[C@@H](C3)N4)nc(OC[C@@]34CCCN3C[C@H](F)C4)nc2c1F` [Example 207, 4-((1R,5S)-3,8-Diazabicyclo[3.2.1]octan-3-yl)-6-chloro-7-(3,5-dimethyl-1H-indazol-4-yl)-8-fluoro-2-(((2R,7aS)-2-fluorotetrahydro-1H-pyrrolizin-7a(5H)-yl)methoxy)quinazoline], the negative logarithm of the IC50 (pIC50) is 8.15 in test [1], 6.46 in test [3] and 6.69 in test [4]. Further, in test [2], the “Avg 2 h Coupled Exchange IC50” value came to 0.007 µM.

Turning to `Oc1cc(-c2c(F)cc3c(N4C[C@@H]5CC[C@H]4CN5)nc(OCC45CCCN4C[C@H](F)C5)nc3c2F)c2c(F)c(F)ccc2c1` (atropisomer, axis not shown; (M)) [Example 233, (M)-4-(4-((1S,4S)-2,5-Diazabicyclo[2.2.2]octan-2-yl)-6,8-difluoro-2-(((2R,7aS)-2-fluorotetrahydro-1H-pyrrolizin-7a(5H)-yl)methoxy)quinazolin-7-yl)-5,6-difluoronaphthalen-2-ol], the pIC50 in test [1] was 9.00; in test [3], 7.57; in test [4] it was 8.30. Moreover, the “Avg 2 h Coupled Exchange IC50” value in test [2] was found to be 0.001 µM.

With `CCc1c(F)ccc2cc(O)cc(-c3cc4nc(OC[C@@]56CCCN5C[C@H](F)C6)nc(N5C[C@@H]6CC[C@H]5CN6)c4cc3F)c12` [Example 174, 4-(4-((1S,4S)-2,5-diazabicyclo[2.2.2]octan-2-yl)-6-fluoro-2-(((2R,7aS)-2-fluorotetrahydro-1H-pyrrolizin-7a(5H)-yl)methoxy)quinazolin-7-yl)-5-ethyl-6-fluoronaphthalen-2-ol], the pIC50 was 8.40 in test [1], 7.19 in test [3] and 7.24 in test [4]. In addition, the “Avg 2 h Coupled Exchange IC50” value in test [2] came to 0.005 µM.

For `Cc1c(-c2cc(O)cc3cccc(Cl)c23)ccc2c(N3C[C@H]4CC[C@@H](C3)N4)nc(OC[C@@]34CCCN3C[C@H](F)C4)nc12` [Example 57, 4-(4-((1R,5S)-3,8-diazabicyclo[3.2. 1]octan-3-yl)-2-(((2R,7aS)-2-fluorotetrahydro-1H-pyrrolizin-7a(5H)-yl)methoxy)-8-methylquinazolin-7-yl)-5-chloronaphthalen-2-ol], the pIC50 in test [1] was 8.30; in test [3] it was 6.67; in test [4], 6.65. Besides, the “Avg 2 h Coupled Exchange IC50” value in test [2] came to 0.003 µM.

`CCc1cccc2cccc(-c3ccc4c(N5C[C@H]6CC[C@@H](C5)N6)nc(OC[C@@]56CCCN5C[C@H](F)C6)nc4c3F)c12` [Example 54, 4-((1R,5S)-3,8-diazabicyclo[3.2. 1]octan-3-yl)-7-(8-ethylnaphthalen-1-yl)-8-fluoro-2-(((2R,7aS)-2-fluorotetrahydro-1H-pyrrolizin-7a(5H)-yl)methoxy) quinazoline]: the pIC50 is 8.40 in test [1], 5.91 in test [3] and 6.10 in test [4]. Besides, in test [2], the “Avg 2 h Coupled Exchange IC50” value was 0.003 µM.

On to `Oc1cc(-c2c(F)cc3c(N4C[C@H]5CCC[C@@H](C4)N5)nc(OC[C@@]45CCCN4C[C@H](F)C5)nc3c2F)c2ccccc2c1` [Example 120, 4-(4-((1R,5S)-3,9-diazabicyclo[3.3.1]nonan-3-yl)-6,8-difluoro-2-(((2R,7aS)-2-fluorotetrahydro-1H-pyrrolizin-7a(5H)-yl)methoxy)quinazolin-7-yl)naphthalen-2-ol], for which the pIC50 in test [1] is 8.10; in test [3] it was 5.93; in test [4] it was 5.94. In addition, in test [2], the “Avg 2 h Coupled Exchange IC50” value was determined as 0.004 µM.

`Cc1c(Cl)cc2cn[nH]c2c1-c1ccc2c(N3C[C@H]4CC[C@@H](C3)N4)nc(OC[C@@]34CCCN3C[C@H](F)C4)nc2c1F` [Example 165, 4-((1R,5S)-3,8-diazabicyclo[3.2.1]octan-3-yl)-7-(5-chloro-6-methyl-1H-indazol-7-yl)-8-fluoro-2-(((2R,7aS)-2-fluorotetrahydro-1H-pyrrolizin-7a(5H)-yl)methoxy) quinazoline]: the pIC50 was 7.57 in test [1], 5.48 in test [3] and 5.35 in test [4]. Also, the “Avg 2 h Coupled Exchange IC50” value in test [2] was 0.011 µM.

`Cc1c(-c2cc(O)cc3cccc(Cl)c23)ccc2c(N3C[C@@H]4CC[C@H]3CN4)nc(OC[C@@]34CCCN3C[C@H](F)C4)nc12` [Example 96, 4-(4-((1S,4S)-2,5-diazabicyclo[2.2. 2]octan-2-yl)-2-(((2R,7aS)-2-fluorotetrahydro-1H-pyrrolizin-7a(5H)-yl)methoxy)-8-methylquinazolin-7-yl)-5-chloronaphthalen-2-ol]: the pIC50 is 8.15 in test [1], 6.67 in test [3] and 7.02 in test [4]. In addition, the “Avg 2 h Coupled Exchange IC50” value in test [2] was 0.005 µM.

As to `CCc1cccc2cccc(-c3ccc4c(N5C[C@H]6CC[C@@H](C5)N6)nc(OC[C@@]56CCCN5C[C@H](F)C6)nc4c3C)c12` [Example 59, 4-((1R,5S)-3,8-diazabicyclo[3.2. 1]octan-3-yl)-7-(8-ethylnaphthalen-1-yl)-2-(((2R,7aS)-2-fluorotetrahydro-1H-pyrrolizin-7a(5H)-yl)methoxy)-8-methylquinazoline], the pIC50 is 8.10 in test [1], 5.38 in test [3] and 5.47 in test [4]. For the same molecule, the “Avg 2 h Coupled Exchange IC50” value in test [2] was 0.011 µM.

On to `CCc1c(F)ccc2cc(O)cc(-c3c(F)cc4c(N5C[C@H]6CC[C@@H](C5)N6)nc(/C=C/C(C)(C)O)nc4c3F)c12` [Example 218, 4-(4-((1R,5S)-3,8-Diazabicyclo[3.2.1]octan-3-yl)-6,8-difluoro-2-((E)-3-hydroxy-3-methylbut-1-en-1-yl)quinazolin-7-yl)-S-ethyl-6-fluoronaphthalen-2-ol], for which the results for the pIC50 in test [1], in test [3] and in test [4] were 8.22, 5.94 and 5.84, respectively. For the same molecule, the “Avg 2 h Coupled Exchange IC50” value in test [2] was 0.006 µM.

With `CN1C[C@H](F)C[C@H]1COc1nc(N2C[C@H]3C[C@@H](C2)N3)c2ccc(-c3cc(O)cc4ccccc34)c(F)c2n1` [Example 7, 4-(4-((1R,5S)-3,6-diazabicyclo[3.1. 1]heptan-3-yl)-8-fluoro-2-(((2S,4R)-4-fluoro-1-methylpyrrolidin-2-yl)methoxy)quinazolin-7-yl)naphthalen-2-ol], the pIC50 in test [1] was 7.12; in test [3], 5.48; in test [4], 5.45. In addition, in test [2], the “Avg 2 h Coupled Exchange IC50” value is 0.035 µM.

Regarding `Fc1c(-c2cc(Cl)cc3ccccc23)c(Cl)cc2c(N3C[C@H]4CC[C@@H](C3)N4)nc(OC[C@@]34CCCN3C[C@H](F)C4)nc12` [Example 78, 4-((1R,5S)-3,8-diazabicyclo[3.2. 1]octan-3-yl)-6-chloro-7-(3-chloronaphthalen-1-yl)-8-fluoro-2-(((2R,7aS)-2-fluorotetrahydro-1H-pyrrolizin-7a(5H)-yl)methoxy) quinazoline], the pIC50 was 6.65 in test [1], 5.22 in test [3] and below 5.00 in test [4]. Further, the “Avg 2 h Coupled Exchange IC50” value in test [2] was 0.090 µM.

In the case of `Oc1cc(-c2ccc3c(N4[C@@H]5CC[C@H]4CNC5)nc(OC[C@@]45CCCN4C[C@H](F)C5)nc3c2F)c2cccnc2c1` [Example 29, 5-(4-((1R,5S)-3,8-diazabicyclo[3.2. 1]octan-8-yl)-8-fluoro-2-(((2R,7aS)-2-fluorotetrahydro-1H-pyrrolizin-7a(5H)-yl)methoxy)quinazolin-7-yl)quinolin-7-ol], the pIC50 in test [1] was 6.79; in test [3], 5.00; in test [4], below 5.00. The “Avg 2 h Coupled Exchange IC50” value in test [2] turned out to be 0.08 µM.

Consider `Oc1cc(-c2c(F)cc3c(N4C[C@@H]5C[C@H]4CN5)nc(OC[C@@]45CCCN4C[C@H](F)C5)nc3c2F)c2ccccc2c1` [Example 49, 4-(4-((1S,4S)-2,5-diazabicyclo[2.2. 1]heptan-2-yl)-6,8-difluoro-2-(((2R,7aS)-2-fluorotetrahydro-1H-pyrrolizin-7a(5H)-yl)methoxy)quinazolin-7-yl)naphthalen-2-ol], for which the pIC50 was 7.74 in test [1], 5.44 in test [3] and 6.19 in test [4]. Besides, the “Avg 2 h Coupled Exchange IC50” value in test [2] turned out to be 0.009 µM.

Values taken from patent US20250059205A1, “Heterocyclic Compounds and Methods of Use” (AMGEN INC., priority 2021, published 2025).
